# Results taken from patent US20100113430A1, “THIOXANTHENE DERIVATES USEFUL TO TREAT INFECTIOUS DISEASES” (BKG PHARMA APS, priority 2007, published 2010).
# What was measured:
# Format in all cases: cell-based
# [1] = tested on: multiresistant clinical isolate of Staphylococcus epidermidis; experiment: MIC, microdilution broth method (NCCLS), Staphylococcus epidermidis
# Protocol: (§1) Cell growth was tested using the Minimal Inhibitory Concentration (MIC) susceptibility tests by use of the microdilution broth method in accordance to the NCCLS Guidelines (NCCLS Guidelines, Methods for Dilution Antimicrobial Susceptibility Tests for Bacteria That Grow Aerobically; Approved Standard, Sixth Edition, Volume 23; Number 2). The minimum inhibitory concentration (MIC), is defined ad the lowest concentration of drug which inhibits growth of the test organism, in the sense that no visible growth is detected (total inhibition of growth). In example 2 MIC of the compounds used on fungal microorganisms was determined from the IC90 measurements according to NCCLS Guidelines.
# A log phase culture of bacteria was diluted with fresh pre-warmed Mueller-Hinton medium and adjusted to a defined OD at 600 nm in order to give a final concentration of 1×10^4-5 bacteria/ml medium. The bacterial culture was transferred to microtiter-plates and culture was added to each well. […] Trays were incubated at 37° C. by shaking in a robot analyzer, PowerWavex, software KC^4′ Kebo.Lab, Copenhagen, for 16 h and optical densities were measured at 600 nm during the incubation time in order to record growth curves. Wells containing bacterial culture without drug were used as controls to ensure correct inoculum size and bacterial growth during the incubation. Cultures were tested in order to detect contaminations. Each experiment was repeated in triplicate.
# A clinically relevant isolate of Staphylococcus epidermidis was cultured and assayed as described above for susceptibility towards the compounds listed in table 1.
# [2] = tested on: Candida glabrata clinical isolates; experiment: MIC (90% growth inhibition), broth microdilution NCCLS M27-A, Candida glabrata
# Protocol: as §1, with “Guidelines. […]” for “Guidelines.”
# 4 clinical isolates of Candida sp. (including 3 fluconazole resistant isolates) were subcultured for 24 h on Sabouraud glucose agar before susceptibility testing. Broth microdilution tests were performed according to NCCLS document M27-A (Ref: National Committee for Clinical Laboratory Standards. (1997). Reference Method for Broth Dilution Antifungal Susceptibility Testing of Yeasts: Approved Standard M27-A. NCCLS, Wayne, Pa.). Microtitre plates were read spectrophotometrically at 530 nm, after mixing the wells by pipetting to resuspend yeast sediments. In this experiment, the MIC was defined as the lowest drug dilution resulting in 90% growth inhibition.
# [3] = tested on: Staphylococci, Micrococci. Including MRSA; experiment: MIC/IC90 broad spectrum, Staphylococci and Micrococci; details: 30 strains, 20 resistant (20 MRSA)
# Protocol: as §1
# (§2) A log phase culture of bacteria was diluted with fresh pre-warmed Mueller-Hinton medium and adjusted to a defined OD at 600 nm in order to give a final concentration of 1×10^4-5 bacteria/ml medium. The bacterial culture was transferred to microtiter-plates and culture was added to each well. Drug was added to the bacterial culture in the wells as two-fold dilution series of drug in order to give final concentrations ranging from 0.03 to 128 μg/ml. Trays were incubated at 37° C. by shaking in a robot analyzer, PowerWavex, software KC^4′ Kebo.Lab, Copenhagen, for 16 h and optical densities were measured at 600 nm during the incubation time in order to record growth curves. Wells containing bacterial culture without drug were used as controls to ensure correct inoculum size and bacterial growth during the incubation. Cultures were tested in order to detect contaminations. Each experiment was repeated in triplicate. MIC values represent the mean values of two separate triplicate experiments. Intra- and interassay variation was <5%.
# Inhibition 90 (IC90) is defined as: OD responding a 90% growth inhibition.
# A broad spectrum of bacteria were cultured and assayed as described above for susceptibility towards N-dealkyl-clopenthixol.
# [4] = tested on: clinically relevant resistant bacterial isolate S. Aureus; experiment: Growth inhibition by cis/trans combinations, resistant isolate S. Aureus; details: Trans-compound 0.5 μg/ml, Cis-compound 0 μg/ml
# Protocol: as §1
# as §2, with “Wells containing bacterial culture without drug were used as controls to ensure correct inoculum size and bacterial growth during the incubation. Cultures were tested in order to detect contaminations. Each experiment was repeated in triplicate. MIC values represent the mean values of two separate triplicate experiments. Intra- and interassay variation was <5%.” left out
# uninfected MT4 cells = experiment: Cytotoxic effect in uninfected MT4 cultures; details: six days
# Protocol: Compounds were examined for possible antiviral activity against strain IIIB of HIV-1 using MT4 cells as target cells. MT4 cells were incubated with virus (0.005 MOI) and growth medium containing the test dilutions of compound(s) for six days in parallel with virus-infected and uninfected control cultures without compound added. Expression of HIV in the cultures was indirectly quantified using the MTT assay as previously described. Compounds mediating less than 30% reduction of HIV expression were considered without biological activity. Compounds were tested in parallel for cytotoxic effect in uninfected MT4 cultures containing the test dilutions of compound as described above. Cultures for test of both antiviral activity and cytotoxic effect were set up in triple duplicates, 200 ml per culture in micro titre plates. A 30% inhibition of cell growth relative to control cultures was considered significant. The 50% inhibitory concentration was determined by interpolation from the plots of percent inhibition versus concentration of compound. CC50 is defined as the inhibitory concentration that reduces cellular growth or viability of uninfected cells by 50%.
# [5] = tested on: resistant and susceptible clinical bacterial isolates; experiment: Susceptibility of resistant versus susceptible bacterial isolates (Example 3); details: isolates of Tables 3a and 3b
# Protocol: as §1
# as §2, with “Wells containing bacterial culture without drug were used as controls to ensure correct inoculum size and bacterial growth during the incubation. Cultures were tested in order to detect contaminations. Each experiment was repeated in triplicate. MIC values represent the mean values of two separate triplicate experiments. Intra- and interassay variation was <5%.” left out
compound,measurement,setting,value
"Clc1ccc2c(c1)/C(=C/CCN1CCNCC1)c1ccccc1S2 [N-dealkyl-trans-clopenthixol, trans-1-(3-(2-chloro-thioxanthen-9-ylidene)propyl)piperazine]",MIC,"[1]; Staphylococcus epidermidis multiresistant isolate, Example 6, isomers alone and 1:1 mixture",0.5 µg/mL
same,MIC,"[1]; multiresistant clinical isolate of Staphylococcus epidermidis, Example 1",0.5 µg/mL
same,MIC,[2]; strain 2. Candida glabrata FR (fluconazole resistant),1 µg/mL
same,MIC,[2]; strain 4. Candida glabrata FR (fluconazole resistant),0.5 µg/mL
same,MIC,[2]; strain 5. Candida glabrata,0.5 µg/mL
same,IC90 (mean),[3],0.5 µg/mL
same,MIC (mean),[3],1 µg/mL
same,MIC range,[3],0.5 to 2 µg/mL
same,Growth inhibition,[4],100%
same,CC50,uninfected MT4 cells,> 3 µM
same,difference in susceptibility between resistant and susceptible isolates,[5],No difference in susceptibility
